Columns and labels:
[1] = Optical stability test of different metal salts, 2% premix, illumination at 4500-5000 lux for 5 days, HPLC; assay type: physicochemical; conditions: for Initial content (%): 2% premix with corncob powder, before illumination; for Residual content of 5 days later (%): 2% premix
Description: Samples (the premixes) were spread in a stability test chamber and subjected to illumination at 4500-5000 lux for 5 days. Then 1.0 g of each of the samples (three duplicate samples from each sample) and 50 ml of ethanol were added into a conical flask, subjected to sonication for 10 min, and then filtrated through filter paper. The filtrate was transferred into a 50 ml volumetric flask, topped up to the final volume with ethanol, and then filtered with a 0.45 μm microporous membrane and subjected to HPLC analysis. Column: WondasilC18 (250 mm×4.6 mm, 5 μm); Mobile Phase: methanol/40 mM ammonium acetate (65:35, v/v; pH 4): Detection Wavelength: 220 nm; Column Temperature: 25° C.; […] Flow Rate: 0.8 or 1.0 ml/min.

[2] = Thermal stability test of different metal salts, 2% premix with corncob powder at 100° C., HPLC; assay type: physicochemical; conditions: for Initial content (%): 2% premix with corncob powder, before heating; for Residual content at 100° C. for 20 h (%) / Residual content at 100° C. for 40 h (%): 2% premix; for Residual content at 100° C. for 20 h (%) / Residual content at 100° C. for 40 h (%) / thermal stability (in words): 100° C.; for thermal stability (in words): compared with IST-009-001
Description: (§1) Each of the metal salts of 2-hydroxy-4-propylcyclohepta-2,4,6-trienone prepared in Embodiments 2-6 was mixed with corncob powder to obtain a premix with a mass fraction of 2%. Samples (the premix) were placed in crucibles and spread, and then placed in oven at 100° C. for different durations. Then 1.0 g of each of the samples (three duplicate samples from each sample) and 50 ml of ethanol were added into a conical flask, subjected to sonication for 10 min, and then filtrated through filter paper. The filtrate was transferred into a 50 ml volumetric flask, topped up to the final volume with ethanol, and then filtered with a 0.45 μm microporous membrane and subjected to HPLC analysis.
(§2) Chromatographic Parameters
(§3) Column: Wondasil C18 (250 mm×4.6 mm, 5 μm);
Mobile phase: methanol/40 mM ammonium acetate (65:35, v/v; pH 4):
(§4) Detection Wavelength: 220 nm;
(§5) Column Temperature: 25° C.;
(§6) Flow Rate: 0.8 or 1.0 ml/min.

[3] = tested on: yellow feather broilers (female); experiment: Application in broiler feeds, 30 days test period, weight gain and feed conversion; assay type: in vivo; conditions: for Average daily weight gain / Average weight gain / Feed conversion efficiency / Consumption: 30 days; for Consumption: group of 100 broilers
Text: 500 1-day-aged, healthy, fast-grown yellow feather broilers (female) in the same growing state and similar in weight were randomly divided into five groups according to table 4, 100 broilers in each group. Broilers of each group were fed with different dosages of magnesium 7-oxo-3-propylcyclohepta-1,3,5-trienolate or 2-hydroxy-4-propylcyclohepta-2,4,6-trienone.

[4] = Thermal stability test of 7-oxo-3-propylcyclohepta-1,3,5-trien-1-yl stearate, 2% premix with corncob powder in oven, HPLC; assay type: physicochemical
Description: as §1, with “The” for “Each of the metal salts of 2-hydroxy-4-propylcyclohepta-2,4,6-trienone”, “7-oxo-3-propylcyclohepta-1,3,5-trien-1-yl stearate (IST-009-050)” for “in Embodiments 2-6”, “60°” for “100°”, “C. or eat” for “C.”
as §2, §3
Mobile Phase: acetonitrile (100%);
as §4, §5, §6

[5] = 2.5 ppm mixed with feed, broilers
[6] = 5.0 ppm mixed with feed, broilers

Compound: CCCc1cccc(=O)c(O)c1 [IST-009-001, 2-hydroxy-4-propylcyclohepta-2,4,6-trienone]
- Initial content (%) [1]: 2.0%
- Residual content of 5 days later (%) ([1]; 4500-5000 lux, 5 days): 0%
- Initial content (%) [2]: 2.0%
- Residual content at 100° C. for 20 h (%) [2]: 0%
- Residual content at 100° C. for 40 h (%) [2]: 0%
- Average daily weight gain [3, 5]: 26.1 g
- Average weight gain [3, 5]: 783 g
- Feed conversion efficiency [3, 5]: 1.988
- Consumption ([3]; 2.5 ppm mixed with feed): 156.66 kg
- Average daily weight gain [3, 6]: 26.8 g
- Average weight gain [3, 6]: 804 g
- Feed conversion efficiency [3, 6]: 1.906
- Consumption ([3]; 5.0 ppm mixed with feed): 153.24 kg
- Content (%) ([4]; 2% premix, 80° C., 22 h): 0%
- Content (%) ([4]; 2% premix, 80° C., 44 h): 0%
- Content (%) ([4]; 2% premix, 80° C., 68 h): 0%

Compound: CCCCCCCCCCCCCCCCCC(=O)Oc1cc(CCC)cccc1=O [IST-009-050, 7-oxo-3-propylcyclohepta-1,3,5-trien-1-yl stearate]
- Content (%) ([4]; 2% premix with corncob powder, before heating (no temperature, no time)): 2.0%
- Content (%) ([4]; 2% premix, 60° C., 22 h): 0.84%
- Content (%) ([4]; 2% premix, 60° C., 44 h): 0.35%
- Content (%) ([4]; 2% premix, 60° C., 68 h): 0.14%
- Content (%) ([4]; 2% premix, 80° C., 22 h): 0.61%
- Content (%) ([4]; 2% premix, 80° C., 44 h): 0.03%
- Content (%) ([4]; 2% premix, 80° C., 68 h): 0%
- thermal stability (in words) ([4]; compared with IST-009-001): better than the unesterified 2-hydroxy-4-propylcyclohepta-2,4,6-trienone (IST-009-001), but not satisfactory yet

Compound: CCCc1cccc(=O)c([O-])c1.[K+] [potassium 7-oxo-3-propylcyclohepta-1,3,5-trienolate]
- Initial content (%) [1]: 2.0%
- Residual content of 5 days later (%) ([1]; 4500-5000 lux, 5 days): 0.17%
- Initial content (%) [2]: 2.0%
- Residual content at 100° C. for 20 h (%) [2]: 1.43%
- Residual content at 100° C. for 40 h (%) [2]: 1.13%

Compound: CCCc1cccc(=O)c([O-])c1.[Na+] [sodium 7-oxo-3-propylcyclohepta-1,3,5-trienolate]
- Initial content (%) [1]: 2.0%
- Residual content of 5 days later (%) ([1]; 4500-5000 lux, 5 days): 0.05%
- Initial content (%) [2]: 2.0%
- Residual content at 100° C. for 20 h (%) [2]: 1.31%
- Residual content at 100° C. for 40 h (%) [2]: 1.11%

Compound: CCCc1cccc(=O)c(O)c1 [Magnesium 7-oxo-3-propylcyclohepta-1,3,5-trienolate]
- Residual content of 5 days later (%) ([1]; 4500-5000 lux, 5 days): 1.52%
- Residual content at 100° C. for 40 h (%) [2]: 1.99%
- Average daily weight gain [3, 5]: 26.2 g
- Average weight gain [3, 5]: 785 g
- Feed conversion efficiency [3, 5]: 1.984
- Consumption ([3]; 2.5 ppm mixed with feed): 155.94 kg
- Average daily weight gain [3, 6]: 26.6 g
- Average weight gain [3, 6]: 798 g
- Feed conversion efficiency [3, 6]: 1.899
- Consumption ([3]; 5.0 ppm mixed with feed): 151.54 kg
- feed conversion efficiency (in words) ([3]; broilers, 30 days test period): significantly improved
- weight gain (in words) ([3]; broilers, 30 days test period): significantly improved

Compound: CCCc1cccc(=O)c(O)c1 [magnesium 7-oxo-3-propylcyclohepta-1,3,5-trienolate]
- thermal stability (in words) [2]: highest thermal stability

Compound: CCCc1cccc(=O)c(O)c1 [Manganese 7-oxo-3-propylcyclohepta-1,3,5-trienolate]
- Residual content of 5 days later (%) ([1]; 4500-5000 lux, 5 days): 1.96%
- optical stability (in words) ([1]; 4500-5000 lux, 5 days): most significant
- Initial content (%) [2]: 2.0%
- Residual content at 100° C. for 20 h (%) [2]: 1.99%
- Residual content at 100° C. for 40 h (%) [2]: 1.98%
- thermal stability (in words) [2]: highest thermal stability

Compound: CCCc1cccc(=O)c(O)c1 [Calcium 7-oxo-3-propylcyclohepta-1,3,5-trienolate]
- Residual content of 5 days later (%) ([1]; 4500-5000 lux, 5 days): 0.89%
- Residual content at 100° C. for 20 h (%) [2]: 1.73%
- Residual content at 100° C. for 40 h (%) [2]: 1.67%

— US9938230B2, “Esters or salts of 2-hydroxy-4-propylcyclohepta-2,4,6-trienone and application thereof in preparation of animal antibacterial agents and growth promoters used in feed” (GUANGZHOU INSIGHTER BIOTECHNOLOGY CO., LTD., priority 2014, dated 2018)
